Tests used:
[1] = system: NCI-H358 cells (K-Ras G12C); experiment: CellTiter-Glo cell viability, NCI-H358; type: cell-based, human; conditions: Homo sapiens, NCI-H358, 120 h, K-Ras G12C, 5-day treatment; read-out: H358 Cell Viability IC50
In short: (§1)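 Endpoint: CellTiter-Glo luminescence on day 5, following ~30 min at room temperature. Data as (sample/mean DMSO)×100, four-parameter logistic fit.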

[2] = system: Capan-1 cells (K-Ras G12V); experiment: CellTiter-Glo cell viability, Capan-1; type: cell-based, human; conditions: Homo sapiens, CAPAN-1, 120 h, K-Ras G12V, 5-day treatment; read-out: Capan-1 Cell Viability IC50
In short: as §1

KRAS G12C = KRAS G12C (Homo sapiens (Human), UniProt P01116+P62937, G12C); experiment: Ras-Raf disruption/FRET/MOA assay (BRAF RBD, Cyclophilin A); type: biochemical; conditions: read-out: KRAS G12C FRET IC50
In short: (§2)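 TR-FRET readout: anti-His Eu-W1024 (10 nM) and anti-GST allophycocyanin (50 nM) added after 3 h, 25° C compound incubation, then 1.5 h more. Decrease in FRET ratio versus DMSO wells marks Ras:RAF disruption; IC50 reported.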

KRAS G12D = KRAS G12D (Homo sapiens (Human), UniProt P01116+P62937, G12D); experiment: as above; type: biochemical; conditions: read-out: KRAS G12D FRET IC50
In short: as §2

KRAS G12S = KRAS G12S (Homo sapiens (Human), UniProt P01116+P62937, G12S); experiment: as above; type: biochemical; conditions: read-out: KRAS G12S FRET IC50
In short: as §2

KRAS G12V = KRAS G12V (Homo sapiens (Human), UniProt P01116+P62937, G12V); experiment: as above; type: biochemical; conditions: read-out: KRAS G12V FRET IC50
In short: as §2

KRAS G13C = KRAS G13C (Homo sapiens (Human), UniProt P01116+P62937, G13C); experiment: as above; type: biochemical; conditions: read-out: KRAS G13C FRET IC50
In short: as §2

KRAS G13D = KRAS G13D (Homo sapiens (Human), UniProt P01116+P62937, G13D); experiment: as above; type: biochemical; conditions: read-out: KRAS G13D FRET data IC50
In short: as §2

KRAS WT = KRAS WT (Homo sapiens (Human), UniProt P01116+P62937); experiment: as above; type: biochemical; conditions: read-out: KRAS WT FRET data IC50
In short: as §2

NRAS G12C = NRAS G12C (Homo sapiens (Human), UniProt P01111+P62937, G12C); experiment: as above; type: biochemical; conditions: read-out: NRAS G12C FRET data IC50
In short: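 Measured: compound-facilitated Cyclophilin A:Ras complex blocking RAF RBD binding. Conditions: 12.5 nM Ras-GMPPNP, 50 nM BRAF RBD, 25 μM CypA, 3 h plus 1.5 h detection. Output: IC50 from TR-FRET ratio.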

[3] = molecular target: K-Ras G12C(GMP-PNP) binding to BRAF RBD (Homo sapiens (Human), UniProt P01116+P62937, G12C); experiment: Disruption of BRAF RBD interaction with K-Ras (FRET / MOA assay), K-Ras G12C; type: biochemical; conditions: read-out: KRAS G12C FRET IC50
In short: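 Cpd 10-pt 3-fold dilution, top 30 μM final; Ras/CypA/BRAF RBD mix 3 h, 25° C. Add anti-His Eu-W1024 10 nM + anti-GST APC 50 nM final, 1.5 h. Readout TR-FRET ratio decrease vs DMSO → IC50.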

Sequence of KRAS G13C (P01116 other isoform, or with tags, fused parts or gaps G13C): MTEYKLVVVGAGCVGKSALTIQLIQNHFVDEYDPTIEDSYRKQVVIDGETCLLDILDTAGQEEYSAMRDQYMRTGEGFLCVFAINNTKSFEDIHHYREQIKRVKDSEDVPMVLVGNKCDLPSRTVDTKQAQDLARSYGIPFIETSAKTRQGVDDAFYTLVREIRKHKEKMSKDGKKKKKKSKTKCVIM
Sequence of KRAS G13C (P62937 whole entry): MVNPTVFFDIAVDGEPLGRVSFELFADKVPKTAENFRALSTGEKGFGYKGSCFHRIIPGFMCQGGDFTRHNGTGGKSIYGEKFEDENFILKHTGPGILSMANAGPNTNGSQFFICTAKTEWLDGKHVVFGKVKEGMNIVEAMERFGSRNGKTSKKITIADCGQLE
Sequence of K-Ras G12C(GMP-PNP) binding to BRAF RBD (P01116 other isoform, or with tags, fused parts or gaps G12C): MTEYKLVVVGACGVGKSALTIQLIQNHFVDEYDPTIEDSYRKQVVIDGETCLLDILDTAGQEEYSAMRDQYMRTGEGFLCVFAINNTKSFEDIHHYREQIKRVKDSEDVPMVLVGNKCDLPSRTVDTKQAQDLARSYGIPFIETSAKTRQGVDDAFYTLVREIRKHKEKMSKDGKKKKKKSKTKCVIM
Sequence of K-Ras G12C(GMP-PNP) binding to BRAF RBD (P62937 whole entry): as the sequence (P62937 whole entry) above
Sequence of KRAS G12D (P01116 other isoform, or with tags, fused parts or gaps G12D): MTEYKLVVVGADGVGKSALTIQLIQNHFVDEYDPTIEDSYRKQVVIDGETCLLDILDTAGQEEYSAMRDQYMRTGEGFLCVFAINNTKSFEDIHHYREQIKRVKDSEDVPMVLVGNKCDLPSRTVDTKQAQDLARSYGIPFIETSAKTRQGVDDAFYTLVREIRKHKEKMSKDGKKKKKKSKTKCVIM
Sequence of KRAS G12D (P62937 whole entry): as the sequence (P62937 whole entry) above
Sequence of KRAS G13D (P01116 other isoform, or with tags, fused parts or gaps G13D): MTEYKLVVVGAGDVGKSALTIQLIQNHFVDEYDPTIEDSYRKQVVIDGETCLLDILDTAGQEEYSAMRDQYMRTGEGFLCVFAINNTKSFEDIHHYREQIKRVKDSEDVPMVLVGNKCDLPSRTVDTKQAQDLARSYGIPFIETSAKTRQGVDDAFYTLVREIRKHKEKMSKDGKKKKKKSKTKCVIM
Sequence of KRAS G13D (P62937 whole entry): as the sequence (P62937 whole entry) above
Sequence of NRAS G12C (P01111 whole entry G12C): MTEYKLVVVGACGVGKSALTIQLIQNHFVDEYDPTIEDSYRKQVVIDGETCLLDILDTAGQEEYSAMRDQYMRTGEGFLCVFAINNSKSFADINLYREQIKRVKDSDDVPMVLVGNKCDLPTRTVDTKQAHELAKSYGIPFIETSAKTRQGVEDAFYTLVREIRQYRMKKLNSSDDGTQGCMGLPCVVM
Sequence of NRAS G12C (P62937 whole entry): as the sequence (P62937 whole entry) above
Sequence of KRAS G12C (P01116-2 other isoform, or with tags, fused parts or gaps G12C): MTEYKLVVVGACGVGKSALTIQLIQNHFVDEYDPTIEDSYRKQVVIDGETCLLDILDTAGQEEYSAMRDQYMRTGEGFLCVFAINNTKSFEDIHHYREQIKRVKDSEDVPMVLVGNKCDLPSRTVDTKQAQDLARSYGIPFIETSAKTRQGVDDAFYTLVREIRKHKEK
Sequence of KRAS G12C (P62937 whole entry): as the sequence (P62937 whole entry) above
Sequence of KRAS WT (P01116 other isoform, or with tags, fused parts or gaps): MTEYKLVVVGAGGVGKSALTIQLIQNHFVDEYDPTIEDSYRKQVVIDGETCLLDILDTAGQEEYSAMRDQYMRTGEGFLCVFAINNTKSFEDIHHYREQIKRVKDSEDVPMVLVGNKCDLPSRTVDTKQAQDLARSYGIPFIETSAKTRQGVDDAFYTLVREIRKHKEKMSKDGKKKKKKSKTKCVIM
Sequence of KRAS WT (P62937 whole entry): as the sequence (P62937 whole entry) above
Sequence of KRAS G12V (P01116 other isoform, or with tags, fused parts or gaps G12V): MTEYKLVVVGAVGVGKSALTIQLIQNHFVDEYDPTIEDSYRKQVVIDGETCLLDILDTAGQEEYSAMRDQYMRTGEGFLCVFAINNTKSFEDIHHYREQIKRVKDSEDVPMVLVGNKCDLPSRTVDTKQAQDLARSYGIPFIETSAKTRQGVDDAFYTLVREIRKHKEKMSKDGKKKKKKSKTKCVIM
Sequence of KRAS G12V (P62937 whole entry): as the sequence (P62937 whole entry) above
Sequence of KRAS G12S (P01116 other isoform, or with tags, fused parts or gaps G12S): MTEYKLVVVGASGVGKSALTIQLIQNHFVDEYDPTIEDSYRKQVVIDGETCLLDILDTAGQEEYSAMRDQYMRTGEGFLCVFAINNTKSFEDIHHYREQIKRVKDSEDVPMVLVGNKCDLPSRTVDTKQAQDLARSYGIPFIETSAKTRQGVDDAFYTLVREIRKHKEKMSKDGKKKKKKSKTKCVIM
Sequence of KRAS G12S (P62937 whole entry): as the sequence (P62937 whole entry) above

Compound	IC50 [1] [nM]	IC50 [2] [nM]	IC50 (KRAS G12C) [nM]	IC50 (KRAS G12D) [nM]	IC50 (KRAS G12S) [nM]	IC50 (KRAS G12V) [nM]	IC50 (KRAS G13C) [nM]	IC50 (KRAS G13D) [nM]	IC50 (KRAS WT) [nM]	IC50 (NRAS G12C) [nM]	IC50 [3] [nM]
CCn1c(-c2cccnc2[C@H](C)OC)c2c3cc(ccc31)-c1cc(O)cc(c1)C[C@H](NC(=O)[C@H](C(C)C)N(C)C(=O)[C@@H]1[C@H]3CC[C@H](C3)[C@@H]1N)C(=O)N1CCC[C@H](N1)C(=O)OCC(C)(C)C2 [Compound A417]	100 to 1000	1000 to 10000	100 to 1000	100 to 1000	100 to 1000	1000 to 10000	100 to 1000	100 to 1000	100 to 1000	100 to 1000	10 to 100
CCn1c(-c2cccnc2[C@H](C)OC)c2c3cc(ccc31)-c1csc(n1)C[C@H](NC(=O)[C@H](C(C)C)N(C)C(=O)N1CCO[C@@]3(CCN(C)C3)C1)C(=O)N1CCC[C@H](N1)C(=O)OCC(C)(C)C2 [Compound A436]	10 to 100	10 to 100	100 to 1000	100 to 1000	100 to 1000	100 to 1000	100 to 1000	100 to 1000	100 to 1000	10 to 100	10 to 100
CCn1c(-c2cc(N3CCN(C)CC3)cnc2[C@H](C)OC)c2c3cc(ccc31)-c1csc(n1)C[C@H](NC(=O)[C@H](C(C)C)N(C)C(=O)[C@@H]1CCCS1(=O)=O)C(=O)N1CCC[C@H](N1)C(=O)OCC(C)(C)C2 [Compound A440]	10 to 100	10 to 100	100 to 1000	1000 to 10000	1000 to 10000	1000 to 10000	1000 to 10000	1000 to 10000	100 to 1000	100 to 1000	10 to 100
CCn1c(-c2cccnc2[C@H](C)OC)c2c3cc(ccc31)-c1csc(n1)C[C@H](NC(=O)[C@H](C(C)C)N(C)C(=O)N1C[C@@H]3OCCN(C)[C@@H]3C1)C(=O)N1CCC[C@H](N1)C(=O)OCC(C)(C)C2 [Compound A444]	10 to 100	10 to 100	10 to 100	100 to 1000	100 to 1000	100 to 1000	100 to 1000	100 to 1000	100 to 1000	10 to 100	10 to 100
CCn1c(-c2cccnc2[C@H](C)OC)c2c3cc(ccc31)-c1csc(n1)C[C@H](NC(=O)[C@H](C(C)C)N(C)C(=O)N1C[C@H]3CN(C)CC[C@H]31)C(=O)N1CCC[C@H](N1)C(=O)OCC(C)(C)C2 [Compound A462]	100 to 1000	100 to 1000	100 to 1000	1000 to 10000	1000 to 10000	1000 to 10000	100 to 1000	1000 to 10000	1000 to 10000	100 to 1000	100 to 1000
CCn1c(-c2cccnc2[C@H](C)OC)c2c3cc(ccc31)-c1csc(n1)C[C@H](NC(=O)[C@H](C(C)C)N(C)C(=O)N1CCC[C@H](N(C)C)CC1)C(=O)N1CCC[C@H](N1)C(=O)OCC(C)(C)C2 [Compound A493]	10 to 100	100 to 1000	10 to 100	100 to 1000	100 to 1000	100 to 1000	100 to 1000	100 to 1000	10 to 100	10 to 100	10 to 100
CCn1c(-c2cccnc2[C@H](C)OC)c2c3cc(ccc31)-c1csc(n1)C[C@H](NC(=O)[C@H](C(C)C)N(C)C(=O)N(C)C1(C)COC1)C(=O)N1CCC[C@H](N1)C(=O)OCC(C)(C)C2 [Compound A527]	10 to 100	10 to 100	100 to 1000	1000 to 10000	100 to 1000	1000 to 10000	1000 to 10000	1000 to 10000	100 to 1000	100 to 1000	< 10
CCn1c(-c2cccnc2[C@H](C)OC)c2c3cc(ccc31)-c1csc(n1)C[C@H](NC(=O)[C@H](C(C)C)N(C)C(=O)N1CC([C@H](C)COC)C1)C(=O)N1CCC[C@H](N1)C(=O)OCC(C)(C)C2 [Compound A533]	10 to 100	10 to 100	10 to 100	100 to 1000	100 to 1000	100 to 1000	100 to 1000	100 to 1000	100 to 1000	10 to 100	10 to 100
CCn1c(-c2cccnc2[C@H](C)OC)c2c3cc(ccc31)-c1csc(n1)C[C@H](NC(=O)[C@H](C(C)C)N(C)C(=O)N1CCN3C(=O)CN(C)C[C@H]3C1)C(=O)N1CCC[C@H](N1)C(=O)OCC(C)(C)C2 [Compound A537]	10 to 100	10 to 100	10 to 100	100 to 1000	10 to 100	100 to 1000	100 to 1000	100 to 1000	10 to 100	10 to 100	10 to 100
CCn1c(-c2cccnc2[C@H](C)OC)c2c3cc(ccc31)-c1csc(n1)C[C@H](NC(=O)[C@H](C(C)C)N(C)C(=O)N1CC([C@H](C)N(C)C)C1)C(=O)N1CCC[C@H](N1)C(=O)OCC(C)(C)C2 [Compound A538]	10 to 100	10 to 100	10 to 100	100 to 1000	100 to 1000	100 to 1000	100 to 1000	100 to 1000	100 to 1000	10 to 100	10 to 100
CCn1c(-c2cccnc2[C@H](C)OC)c2c3cc(ccc31)-c1csc(n1)C[C@H](NC(=O)[C@H](C(C)C)N(C)C(=O)N1CCCC13CN(C)C3)C(=O)N1CCC[C@H](N1)C(=O)OCC(C)(C)C2 [Compound A545]	100 to 1000	100 to 1000	100 to 1000	100 to 1000	100 to 1000	100 to 1000	100 to 1000	100 to 1000	10 to 100	10 to 100	10 to 100
CCn1c(-c2cccnc2[C@H](C)OC)c2c3cc(ccc31)-c1cc(O)cc(c1)C[C@H](NC(=O)[C@H](C(C)C)N(C)C(=O)[C@@H]1OCC[C@H]1c1ccccc1)C(=O)N1CCC[C@H](N1)C(=O)OCC(C)(C)C2 [Compound A584]	10 to 100	100 to 1000	10 to 100	10 to 100	10 to 100	10 to 100	10 to 100	10 to 100	10 to 100	10 to 100	10 to 100

Reference: patent US20250195521A1 (Revolution Medicines, Inc., priority 2020, published 2025)
